{"source": "patent US10058587B2", "about": "“Peptide composition for cancer treatment by inhibiting TRPV6 calcium channel activity” (priority 2008, dated 2018)", "key": {"[1]": {"assay": "Degradation rate in human plasma (HPLC)", "type": "in vitro ADME", "protocol": "(§1) Rat plasma was obtained from blood taken from sacrificed rats (Sprague-Dawley) and placed into heparinized glass vials to prevent clotting. Whole blood was centrifuged at 8000×g for 5 minutes to spin down the cells leaving the plasma as supernatant. Human whole blood samples from healthy humans were taken in lithium-heparinized vacuum tubes. The samples were placed into 2.0 mL microcentrifuge tubes and centrifuged at 8000×g for 5 min. The plasma was carefully separated from red blood cells and used immediately.\n(§2) Determination of degradation rate of the C-peptides was done by measuring, with the HPLC protocol, the amount of either SorC13 or SorC27 in dosed plasma samples, after time. Sample tubes (500 uL) containing 2 uL of 2 mM Pefabloc were previously prepared for sample delivery SorC13 (1.0 mg) or SorC27 (2.0 mg) were dissolved in 1.0 mL of fresh plasma (37° C.) and placed in an incubating water bath at 37° C. A sample (100 uL) was taken immediately and quenched in sample tubes containing 2 uL of 2 mM Pefabloc, mixed vigorously and immediately frozen at −80° C. This initial sample represented time zero for the run. At successive time intervals of 5 minutes, 100 uL samples were withdrawn, quenched in Pefabloc, mixed, and frozen at −80° C. until analysis.\n(§3) The rat plasma degradation rate was determined for the plasma from three different rats, while the rate of degradation in human plasma used six separate plasma samples. The data used were the means (±SEM) and were fitted to a simple one-phase exponential decay model to determine the half-life of the two peptides. This also allowed the calculation of a static degradation rate. FIG. 11 is illustrative of the rate at which SorC27 was degraded in human plasma."}, "[2]": {"test_system": "MDA-MB-231 (MB 231) breast cancer cell line", "assay": "Induction of apoptosis (APO-ONE caspase 3/7) and cell viability (CellTiter Blue)", "type": "cell-based, human", "set-up": "key to Decline in cell viability: decreased (+); or not (−)", "protocol": "(§4) MCF-7, MDA-MB-231, MDA-MB-415, MDA-MB-468 were grown in DMEM modified with 10% (v/v) fetal bovine serum, 2 mM L-glutamine and 50 ug/mL each of penicillin and streptomycin.\n(§5) The levels of apoptotic induction and cell viability were determined by multiplexing the measurements for single samples. CellTiter Blue and APO-ONE assay systems from Promega allows the determination of cell viability correlated to cell number, and induction of apoptosis. This protocol uses a fluorgenic peptide that contains a peptide recognition-sequence for caspase 3 and caspase 7, […] proteolytic enzymes of the apoptosis cascade. The CellTiter Blue reagent was added to wells in a 96-well plate containing cells under test, immediately after addition of peptide solution or vehicle. About 5000 cells were plated into the wells the day before. At the chosen time (Day 1, Day 2 etc.) the fluorescence was measured at 590 nm (emission) after excitation at 560 nm. The caspase 3/7 activity was measured (485 nm Ex/527 nm Em) in the same wells after adding 120 uL of the Apo-ONE reagent, freeze fracturing at −80° C. for 1 hr, and incubating for 1 hr at room temperature.\n(§6) For this work, the concentrations of SorC13 and SorC27 used were 0 uM, 1 uM, 10 uM and 100 uM. The experiments extended over a 5 to 7 day period. All measurements were done in quadruplicate with both a blank (no cells) and control (vehicle, no peptide) used to correct the test measurements. The time-response data, and the dose-response data were plotted as means±standard error of the mean. Any statistical comparisons were done with the Student's t-test or by ANOVA analysis over the dose course. The level of statistical significance was considered to be the 95% confidence interval (i.e., p≤0.05)."}, "[3]": {"test_system": "MDA-MB-415 (MB 415) breast cancer cell line", "assay": "Induction of apoptosis (APO-ONE caspase 3/7) and cell viability (CellTiter Blue)", "type": "cell-based, human", "set-up": "key to Decline in cell viability: decreased (+); or not (−)", "protocol": "as §4, §5, §6"}, "[4]": {"assay": "Single dose acute intravenous bolus toxicity study with 5-day observation", "type": "in vivo, CD-1 mice", "protocol": "A single dose acute intravenous bolus injection toxicity study followed by a 5-day observation period in CD-1 mice was performed as described below. Three doses of each of SorC13 and SorC27 were used (10, 100 and 500 mg/Kg). Daily cage-side exams for 5 days with hourly exams for the first 4 hrs post injection. As part of the analysis the following assessments were made: body weights prior to dosing and at termination; all animals were necropsied (including preparation of bone marrow smears); organ weights were taken of all animals.\nAfter in vivo i.v. injection into CD1 mice, SorC13 caused a small spike (approximately 25%) in blood pressure in the first 15 min which disappeared by 1 hour."}, "[5]": {"assay": "Degradation rate in rat plasma (HPLC)", "type": "in vitro ADME", "protocol": "as §1, §2, §3"}, "[6]": {"test_system": "T 47D breast cancer cell line", "assay": "Induction of apoptosis (APO-ONE caspase 3/7) and cell viability (CellTiter Blue)", "type": "cell-based, human", "set-up": "key to Decline in cell viability: cell viability decreased (+); or not (−)", "protocol": "T 47D was cultured in RPMI medium (Sigma-Aldrich) modified with 15% fetal bovine serum, 2 mM L-glutamine, 1 mM sodium pyruvate, 0.1 mg/mL bovine insulin and penicillin plus streptomycin mixture (50 ug/mL each).\nas §5, §6\nTo benchmark the effect of both C-type peptides to the gold-standard treatment presently used against breast cancer (Paclitaxel), SorC13, SorC27 and Paclitaxel (10 uM) were compared. Both the APO-ONE assay (Promega) and the CellTiter Blue were used on the panel of breast cancer cell lines. The data were compared directly in terms of mean response and tested for significant difference."}, "[7]": {"conditions": "single i.v. 10, 100 and 500 mg/kg"}}, "note": "Where no end group is shown, it is not given here.", "data": [{"sequence": "EGKLSSNDTEGGLCKEFLHPSKVDLPR [SorC27]", "values": [{"measurement": "binding to plasma proteins", "setting": "[1]; human plasma", "value": "doesn't bind to"}, {"measurement": "half-life", "setting": "[1]; human, plasma, 37° C.", "value": 20, "unit": "min"}, {"measurement": "Apoptosis Index (1 = no effect)", "setting": "[2]; Day 3, SorC27 10 μM", "value": 1.5}, {"measurement": "Apoptosis Index (1 = no effect)", "setting": "[2]; Day 3, SorC27 100 μM", "value": 1.7}, {"measurement": "Decline in cell viability", "setting": "[2]; SorC27", "value": "+"}, {"measurement": "Decline in cell viability", "setting": "[3]; SorC27", "value": "+"}, {"measurement": "Apoptosis Index (1 = no effect)", "setting": "[3]; SorC27 10 μM", "value": 1.3}, {"measurement": "Apoptosis Index (1 = no effect)", "setting": "[3]; SorC27 100 μM", "value": 1.5}, {"measurement": "Maximum Tolerated Dose in CD-1 mice by single i.v. dose", "setting": "[4]; 10, 100 and 500 mg/kg doses", "value": "No toxic effects"}, {"measurement": "adverse events over 5-day post-injection observation period", "setting": "[4]; [7]", "value": "no adverse events"}, {"measurement": "necropsy changes in major organ systems", "setting": "[4]; [7]", "value": "no significant changes in all major organ systems"}, {"measurement": "half-life", "setting": "[5]; Sprague-Dawley, rat, plasma, 37° C.", "value": 21, "unit": "min"}, {"measurement": "binding to plasma proteins", "setting": "[5]; rat plasma", "value": "doesn't bind to"}]}, {"sequence": "KEFLHPSKVDLPR [SorC13, KEFLHPSKVDLPR]", "values": [{"measurement": "Apoptosis Index (1 = no effect)", "setting": "[6]; SorC13 1 uM", "value": 2.0}, {"measurement": "Decline in cell viability", "setting": "[6]; SorC13 1 uM", "value": "+"}, {"measurement": "Apoptosis Index (1 = no effect)", "setting": "[6]; SorC13 10 uM", "value": 2.8}, {"measurement": "Decline in cell viability", "setting": "[6]; SorC13 10 uM", "value": "+"}, {"measurement": "induction of apoptosis compared with Paclitaxel (10 uM)", "setting": "[6]; SorC13 10 uM", "value": "more effective at inducing a faster and more intense apoptotic response"}, {"measurement": "Apoptosis Index (1 = no effect)", "setting": "[6]; SorC13 100 uM", "value": 4.3}, {"measurement": "Decline in cell viability", "setting": "[6]; SorC13 100 uM", "value": "+"}]}]}
